In the supplement of paper PMC10307832:

Tests used:
Experiment in all cases: relative viability (nuclei count vs DMSO), 5 days (fraction); higher = more cells survive
[1] = compound: C1=CC=C2C(=C1)N=C(S2)C(C#N)C3=NC(=NC=C3)NCCC4=CN=CC=C4 + Cc1nc(Nc2ncc(C(=O)Nc3c(C)cccc3Cl)s2)cc(N2CCN(CCO)CC2)n1 [Dasatinib] (partner 0.075 µM)
Method in brief: (§1)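 Lung cancer cell lines, seeded in 1536-well plates, were treated the following day by pin tool with a single drug or with five library-drug doses (not always all listed) in √10 steps on top of a fixed anchor-drug dose. Cells were fixed and nuclei stained in one step after 5 days, and nuclei were counted. Relative viability is the nuclei count for treated wells divided by that for vehicle wells, reported as medians of duplicate plates.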

[2] = compound: C1=CC=C2C(=C1)N=C(S2)C(C#N)C3=NC(=NC=C3)NCCC4=CN=CC=C4 + Nc1nc2[nH]cc(CCc3ccc(C(=O)N[C@@H](CCC(=O)O)C(=O)O)cc3)c2c(=O)[nH]1 [Pemetrexed] (partner 0.2 µM)
Method in brief: as §1

CUDC-101 + Palbociclib = compound: C#Cc1cccc(Nc2ncnc3cc(OC)c(OCCCCCCC(=O)NO)cc23)c1 [CUDC-101] + CC(=O)c1c(C)c2cnc(Nc3ccc(N4CCNCC4)cn3)nc2n(C2CCCC2)c1=O [Palbociclib] (partner 0.5 µM)
Method in brief: as §1

NVP-TAE684 + Alpelisib = compound: COc1cc(N2CCC(N3CCN(C)CC3)CC2)ccc1Nc1ncc(Cl)c(Nc2ccccc2S(=O)(=O)C(C)C)n1 [NVP-TAE684] + Cc1nc(NC(=O)N2CCC[C@H]2C(N)=O)sc1-c1ccnc(C(C)(C)C(F)(F)F)c1 [Alpelisib] (partner 2 µM)
Method in brief: as §1

## COR-L23
[1]; first compound 0.005 µM
  relative viability: 0.427
[1]; first compound 0.01581 µM
  relative viability: 0.516
[1]; first compound 0.05 µM
  relative viability: 0.499
[1]; first compound 0.1581 µM
  relative viability: 0.581
[1]; first compound 0.5 µM
  relative viability: 0.489
[2]; first compound 0.005 µM
  relative viability: 0.211
[2]; first compound 0.01581 µM
  relative viability: 0.207
[2]; first compound 0.05 µM
  relative viability: 0.187
[2]; first compound 0.1581 µM
  relative viability: 0.206
[2]; first compound 0.5 µM
  relative viability: 0.17
CUDC-101 + Palbociclib; first compound 0.01 µM
  relative viability: 0.275
CUDC-101 + Palbociclib; first compound 0.03162 µM
  relative viability: 0.332
CUDC-101 + Palbociclib; first compound 0.1 µM
  relative viability: 0.283
CUDC-101 + Palbociclib; first compound 0.3162 µM
  relative viability: 0.253
CUDC-101 + Palbociclib; first compound 1 µM
  relative viability: 0.128
NVP-TAE684 + Alpelisib; first compound 0.2 µM
  relative viability: 0.762
NVP-TAE684 + Alpelisib; first compound 0.6325 µM
  relative viability: 0.517
NVP-TAE684 + Alpelisib; first compound 2 µM
  relative viability: 0.237

## NCI-H460
[1]; first compound 0.005 µM
  relative viability: 0.356
[1]; first compound 0.01581 µM
  relative viability: 0.47
[1]; first compound 0.05 µM
  relative viability: 0.451
[1]; first compound 0.1581 µM
  relative viability: 0.732
[1]; first compound 0.5 µM
  relative viability: 0.418
[2]; first compound 0.01581 µM
  relative viability: 0.0618
[2]; first compound 0.05 µM
  relative viability: 0.0556
[2]; first compound 0.1581 µM
  relative viability: 0.0607
[2]; first compound 0.5 µM
  relative viability: 0.0831
CUDC-101 + Palbociclib; first compound 0.01 µM
  relative viability: 0.277
CUDC-101 + Palbociclib; first compound 0.03162 µM
  relative viability: 0.223
CUDC-101 + Palbociclib; first compound 0.1 µM
  relative viability: 0.135
CUDC-101 + Palbociclib; first compound 0.3162 µM
  relative viability: 0.149
CUDC-101 + Palbociclib; first compound 1 µM
  relative viability: 0.0952
NVP-TAE684 + Alpelisib; first compound 0.2 µM
  relative viability: 0.607
NVP-TAE684 + Alpelisib; first compound 0.6325 µM
  relative viability: 0.412
NVP-TAE684 + Alpelisib; first compound 2 µM
  relative viability: 0.113
